61 compounds from ChEMBL document CHEMBL1156033, “Discovery of the imidazo[1,5-a][1,2,4]-triazolo[1,5-d][1,4]benzodiazepine scaffold as a novel, potent and selective GABA(A) alpha5 inverse agonist series” (Bioorg Med Chem Lett, 2009) can be followed below.

One may read the Ki as the equilibrium dissociation constant of an inhibitor or competing ligand from its target. Lower therefore signals higher affinity. Broadly, the solubility is the dissolved amount per volume that the medium holds. What is called logD is lipophilicity at a set pH, counting ionised and neutral species. Low values mean lower lipophilicity, high ones higher lipophilicity. Broadly, the Papp is a coefficient for how fast a substance crosses the barrier. A high value points to ready permeation.

The structures appear in SMILES notation. In brackets after ≈: the same amount, converted by molar mass. Activity calls are given as the source filed them. No cut-off for these calls is given here.

The target in series [1] is T1, GABA-A receptor; alpha-5/beta-3/gamma-2 (Homo sapiens, UniProt P18507+P28472+P31644).
T1 sequence (P18507 whole entry): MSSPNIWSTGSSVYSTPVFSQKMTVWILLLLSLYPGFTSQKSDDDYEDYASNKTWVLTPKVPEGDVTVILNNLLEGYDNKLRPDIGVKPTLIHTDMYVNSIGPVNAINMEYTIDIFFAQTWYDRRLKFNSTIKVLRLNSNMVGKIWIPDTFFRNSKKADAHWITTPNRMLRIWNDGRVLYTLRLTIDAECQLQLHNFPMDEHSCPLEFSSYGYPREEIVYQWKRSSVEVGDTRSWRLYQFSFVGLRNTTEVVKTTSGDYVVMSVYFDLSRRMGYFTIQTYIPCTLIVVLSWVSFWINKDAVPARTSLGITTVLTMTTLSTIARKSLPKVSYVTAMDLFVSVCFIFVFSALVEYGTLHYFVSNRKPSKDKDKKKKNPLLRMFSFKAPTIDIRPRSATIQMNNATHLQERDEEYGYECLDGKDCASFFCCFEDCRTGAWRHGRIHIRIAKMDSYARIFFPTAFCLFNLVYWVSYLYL
T1 sequence (P28472 whole entry): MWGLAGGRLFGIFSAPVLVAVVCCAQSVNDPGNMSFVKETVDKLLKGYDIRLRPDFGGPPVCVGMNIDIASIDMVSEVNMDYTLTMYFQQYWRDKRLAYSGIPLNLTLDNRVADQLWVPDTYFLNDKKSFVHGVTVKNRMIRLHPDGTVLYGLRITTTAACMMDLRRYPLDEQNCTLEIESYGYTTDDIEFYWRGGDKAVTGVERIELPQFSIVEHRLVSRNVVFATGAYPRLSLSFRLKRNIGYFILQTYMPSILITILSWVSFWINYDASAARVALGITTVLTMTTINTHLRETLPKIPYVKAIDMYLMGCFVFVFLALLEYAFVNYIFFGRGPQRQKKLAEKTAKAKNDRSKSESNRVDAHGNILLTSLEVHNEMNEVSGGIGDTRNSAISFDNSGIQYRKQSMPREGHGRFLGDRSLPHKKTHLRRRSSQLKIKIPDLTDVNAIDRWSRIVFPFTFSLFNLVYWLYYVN
T1 sequence (P31644 whole entry): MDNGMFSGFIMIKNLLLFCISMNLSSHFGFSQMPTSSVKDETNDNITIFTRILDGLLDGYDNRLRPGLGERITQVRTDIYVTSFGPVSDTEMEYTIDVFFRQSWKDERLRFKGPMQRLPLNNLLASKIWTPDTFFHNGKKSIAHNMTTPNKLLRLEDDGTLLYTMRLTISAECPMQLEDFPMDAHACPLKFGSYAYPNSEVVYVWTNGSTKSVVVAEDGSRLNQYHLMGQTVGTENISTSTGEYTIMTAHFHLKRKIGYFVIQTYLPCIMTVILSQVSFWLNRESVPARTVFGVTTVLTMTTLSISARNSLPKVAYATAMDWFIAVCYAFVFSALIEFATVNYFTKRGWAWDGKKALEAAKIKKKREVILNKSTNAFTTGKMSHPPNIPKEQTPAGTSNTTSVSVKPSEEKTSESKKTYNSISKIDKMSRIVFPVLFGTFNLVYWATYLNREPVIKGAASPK
Description: Binding affinity to GABAA alpha-5-beta-3-gamma-2 receptor

Series [2] has as its system Liver microsomes. As to conditions: rat.
Description: Clearance in rat liver microsomes
Series [3] relates to Liver microsomes. As to conditions: human.
Description: Clearance in human liver microsomes
Series [4] can be described thus: physchem.
A short description of series [5]: physchem. As to conditions: buffer, pH 7.4.
Description: Lipophilicity, log Dof the compound at pH 7.4
The nature of another series: in vitro. The settings on record: PAMPA. (The PAMPA barrier holds no transporters, so it reflects passive diffusion.)
Series [6] has as its system Rattus norvegicus. The experiment in a line: Inhibition of scopolamine-induced cognitive deficit in Wistar rat at 100 mg/kg, ip by passive avoidance test. In kind it is functional, organism-based. The arrangement: dose 100 mg/kg.
For series [7], the system named is Rattus norvegicus. The experiment in a line: Inhibition of scopolamine-induced cognitive deficit in Wistar rat at 3 mg/kg, ip by passive avoidance test. Format: functional, organism-based. The arrangement: dose 3 mg/kg.

Description for in vitro: Membrane permeability by PAMPA

On to `CCCc1ncc2c(n1)-c1cc(F)ccc1-n1cnc(C(=O)OCC)c1C2`, for which the Ki in series [1] amounted to 8 nM.
`CCOC(=O)c1ncn2c1Cn1c(Cc3ccccc3)nnc1-c1cc(OC)ccc1-2` showed a Ki in series [1] of 22.9 nM.
Still for that read-out and setting: for `CCOC(=O)c1ncn2c1Cc1cnc(C3CC3)nc1-c1ccccc1-2` the value was 7.6 nM; for `CCOC(=O)c1ncn2c1Cc1cnc(C(C)C)nc1-c1cc(F)ccc1-2`, 11.2 nM.
As for `CCOC(=O)c1ncn2c1Cn1ncnc1-c1cc(Br)ccc1-2`, in series [1], the Ki came to 0.3 nM.
Still for that read-out and setting: in the case of `CCOC(=O)c1ncn2c1Cn1cnnc1-c1cc(C)ccc1-2` it was 2.1 nM; in that of `CC(C)C(=O)c1ncn2c1Cn1cnnc1-c1cc(Br)ccc1-2`, 55.5 nM.
On to `CCOC(=O)c1ncn2c1Cn1cnnc1-c1cc(Br)ccc1-2`, for which the affinity in series [1] corresponds to a Ki of 0.6 nM.
As to `CCOC(=O)c1ncn2c1Cc1cnc(-c3ccccc3)nc1-c1ccccc1-2`, the affinity in series [1], expressed as Ki, was 171 nM.
`Cc1cn2c(n1)-c1cc(Br)ccc1-n1cnc(C)c1C2` had a Ki in series [1] of 119 nM.
For `C#Cc1ncn2c1Cn1cnnc1-c1cc(Br)ccc1-2`, the affinity in series [1] corresponds to a Ki of 7.8 nM.
In series [1], `Cc1ncc2c(n1)-c1ccccc1-n1cnc(Cl)c1C2` returned a Ki of 15.6 nM.
In series [1], `CCOC(=O)c1ncn2c1Cn1ncnc1-c1cc(OC(F)(F)F)ccc1-2` showed a Ki of 0.8 nM.
Regarding `Clc1ncn2c1Cc1cncnc1-c1ccccc1-2`, the Ki in series [1] is 15.6 nM.
`CCOC(=O)c1ncn2c1Cn1ncnc1-c1cc(OC)ccc1-2` registered a Ki in series [1] of 0.2 nM.
The compound `C#Cc1ccc2c(c1)-c1nncn1Cc1c(Cl)ncn1-2` showed an inhibition constant Ki in series [1] of 33.6 nM.
`CCOC(=O)c1ncn2c1Cn1ncnc1-c1cc(C)ccc1-2`: in series [1], the affinity corresponds to a Ki of 0.5 nM.
The compound `CCOC(=O)c1ncn2c1Cc1cnc(C(C)C)nc1-c1ccccc1-2` came in with a Ki in series [1] of 8.9 nM.
Consider `c1ccc2c(c1)-c1ncnn1Cc1cncn1-2`, for which the affinity in series [1] corresponds to a Ki of 6.4 nM. The CL in the series on Liver microsomes [2] is 4000 µL/min/mg; in the series with Liver microsomes [3], 8000 µL/min/mg. In “physchem [4]”, this compound showed a solubility of 231 µg/mL (≈ 1030 µM). This compound yielded a logD in the series “physchem [5]” of 0.73. In “in vitro”, the apparent permeability coefficient (Papp) came out at 2.87 ×10⁻⁶ cm/s.
`Cc1ncn2c1Cn1c(C)cnc1-c1cc(Br)ccc1-2` gave a Ki in series [1] of 11.7 nM.
In the case of `Cc1ncn2c1Cn1cc(CO)nc1-c1cc(Br)ccc1-2`, in series [1], the Ki turned out to be 8.1 nM.
Still for that read-out and setting: in the case of `Clc1ncn2c1Cn1cnnc1-c1cc(Br)ccc1-2` it was 27.4 nM; in that of `Cc1ncn2c1Cn1ccnc1-c1cc(Br)ccc1-2`, 6.6 nM.
As for `CCOC(=O)c1ncn2c1Cc1cnc(C)nc1-c1cc(Br)ccc1-2`, in the series with Rattus norvegicus [6], the inhibition entry is “Active”. Besides, the affinity in series [1] corresponds to a Ki of 12.5 nM. This compound registered a CL in the series with Liver microsomes [3] of 4000 µL/min/mg. Besides, the solubility in “physchem [4]” was 20 µg/mL (≈ 50.1 µM). The logD in the series “physchem [5]” turned out to be 2.68. The same compound displayed a Papp in “in vitro” of 3.6 ×10⁻⁶ cm/s.
The compound `CCOC(=O)c1cn2c(n1)-c1cc(Br)ccc1-n1cnc(C)c1C2` displayed a Ki in series [1] of 5.4 nM.
`CCOC(=O)c1ncn2c1Cn1cnnc1-c1cc(OC)ccc1-2`: in the series with Rattus norvegicus [7], the inhibition result is “Active”. The Ki in series [1] was found to be 1.4 nM.
For `CCOC(=O)c1ncn2c1Cn1ncnc1-c1cc(Cl)ccc1-2`, the Ki in series [1] came to 0.2 nM. The compound also registered a solubility in the series “physchem [4]” of 15 µg/mL (≈ 45.5 µM). This compound also registered a logD in “physchem [5]” of 1.83. The compound further gave a Papp in “in vitro” of 5.59 ×10⁻⁶ cm/s.
As to `CCOC(=O)c1ncn2c1Cc1cnc(C)nc1-c1ccccc1-2`, affinity in series [1] was put at a Ki of 3.8 nM.
Same read-out and setting: for `CCOC(=O)c1ncn2c1Cn1cnnc1-c1ccccc1-2` the value was 0.8 nM.
For the compound `CCOC(=O)c1ncn2c1Cn1c(-c3ccccc3)nnc1-c1cc(OC)ccc1-2`, the inhibition constant Ki in series [1] came to 53.8 nM.
Still for that read-out and setting: in the case of `Brc1ccc2c(c1)-c1nncn1Cc1c(I)ncn1-2` it was 7.8 nM.
`CCOC(=O)c1ncn2c1Cn1cnnc1-c1cc(Cl)ccc1-2` yielded a Ki in series [1] of 1.2 nM.
`CCOC(=O)c1ncn2c1Cn1cnnc1-c1cc(F)ccc1-2` had a Ki in series [1] of 1.7 nM.
Turning to `CCOC(=O)c1ncn2c1Cn1ncnc1-c1ccccc1-2`, the affinity in series [1], expressed as Ki, was 0.2 nM.
In series [1], `CCOC(=O)c1ncn2c1Cn1cnnc1-c1cc(O)ccc1-2` had a Ki of 0.6 nM.
Consider `CCOC(=O)c1ncn2c1Cn1c(C)nnc1-c1cc(OC)ccc1-2`, for which the inhibition constant Ki in series [1] was 14.5 nM.
Take `Clc1ncn2c1Cc1cncnc1-c1cc(Br)ccc1-2`: the affinity in series [1] corresponds to a Ki of 136 nM.
Take `Cc1ncn2c1Cn1cnnc1-c1cc(Br)ccc1-2`: the affinity in series [1], expressed as Ki, was 150 nM.
Turning to `Cc1ncc2c(n1)-c1cc(Br)ccc1-n1cnc(Cl)c1C2`, the inhibition constant Ki in series [1] was 61 nM.
`CCOC(=O)c1ncn2c1Cn1c(Cc3ccccc3)nnc1-c1cc(Br)ccc1-2`: the Ki in series [1] turned out to be 19.1 nM.
Compound `C#Cc1ccc2c(c1)-c1ncnn1Cc1c(C(=O)OCC)ncn1-2` yielded a Ki in series [1] of 0.6 nM.
`CCOC(=O)c1ncn2c1Cn1ncnc1-c1cc(C3CC3)ccc1-2` gave a Ki in series [1] of 0.6 nM.
Still for that read-out and setting: for `CCOC(=O)c1ncn2c1Cc1cnc(C3CC3)nc1-c1cc(F)ccc1-2` the value was 7.8 nM.
Still for that read-out and setting: for `O=C(c1ncn2c1Cn1nccc1-c1ccccc1-2)C1CC1` the value was 1 nM; for `CCOC(=O)c1ncn2c1Cc1cnc(C)nc1-c1cc(F)ccc1-2`, 4.6 nM.
Consider `Cc1ncn2c1Cn1nccc1-c1ccccc1-2`, for which the Ki in series [1] was found to be 3 nM.
In series [1], `C#Cc1ccc2c(c1)-c1nncn1Cc1c(C(=O)OCC)ncn1-2` had an inhibition constant Ki of 2.3 nM.
In the case of `Clc1ncn2c1Cn1nccc1-c1ccccc1-2`, affinity in series [1] was put at a Ki of 2 nM.
Compound `CCOC(=O)c1ncn2c1Cc1cncnc1-c1ccccc1-2` showed an inhibitory constant (Ki) in series [1] of 3.7 nM.
On to `C#Cc1ccc2c(c1)-c1nc(C)ncc1Cc1c(Cl)ncn1-2`, for which the Ki in series [1] came to 133 nM.
The compound `CCOC(=O)c1ncn2c1Cc1cnc(Cc3ccc(OC)cc3)nc1-c1ccccc1-2` came in with a Ki in series [1] of 12.5 nM.
For the compound `Cc1ncn2c1Cn1nccc1-c1cc(Br)ccc1-2`, in series [1], the Ki worked out at 49.1 nM.
In the case of `CCOC(=O)c1ncn2c1Cc1cncnc1-c1cc(Br)ccc1-2`, in series [1], the Ki came to 20.2 nM.
As to `CCOc1ncn2c1Cn1nccc1-c1cc(Cl)ccc1-2`, the affinity in series [1] corresponds to a Ki of 1.4 nM.
The compound `C#Cc1ccc2c(c1)-c1nc(C)ncc1Cc1c(C(=O)OCC)ncn1-2` came in with a Ki in series [1] of 8.1 nM. Also, in the series on Liver microsomes [3], the CL amounted to 8000 µL/min/mg. Besides, the solubility in “physchem [4]” came to 10 µg/mL (≈ 29 µM). Further, in the series “physchem [5]”, the log distribution coefficient (logD) was 2.68. In the series “in vitro”, this compound had a Papp of 2.78 ×10⁻⁶ cm/s.
In series [1], `CCOc1ncn2c1Cn1nccc1-c1ccccc1-2` came in with a Ki of 0.2 nM.
On the same count and under the same terms, in the case of `CCOC(=O)c1ncn2c1Cn1ncnc1-c1cc(NC(=O)C(C)C)ccc1-2` it was 6.4 nM; in that of `N#Cc1ccc2c(c1)-c1nncn1Cc1c(Cl)ncn1-2`, 25.3 nM.
In series [1], `CCCc1ncc2c(n1)-c1ccccc1-n1cnc(C(=O)OCC)c1C2` had a Ki of 5.5 nM.
Compound `c1ccc2c(c1)-c1ncncc1Cc1cncn1-2` showed a Ki in series [1] of 410 nM.
As for `Cc1ncn2c1Cn1cc(CN3CCCC3=O)nc1-c1cc(Br)ccc1-2`, in series [1], the Ki was 1.6 nM.
